Reference: paper PMC10247784, “Physiological activation of human and mouse bitter taste receptors by bile acids” (Communications Biology, 2023)

Tested on: HEK293T-Gα16gust44 cells transfected with empty vector (mock)
Test: Calcium imaging assay (FLIPR), empty vector control (mock)
Format: cell-based
Protocol: This set of bile acids was chosen because of their commercial availability in high purities, their diversity within the class of bile acids and their previous detection and quantitation in human blood. Stock solutions were prepared in DMSO.
As basal growth medium for the HEK293T-Gα16gust44 cell line[17],[59] served Dulbecco’s modified eagle medium (DMEM) (Thermo Fisher Scientific, Darmstadt, Germany) supplemented with 10 % fetal bovine serum (Sigma-Aldrich, Steinheim, Germany), 2 mM L-glutamine (Sigma-Aldrich, Steinheim, Germany), 100 units/ml penicillin (Sigma Aldrich, Steinheim, Germany) and 100 µg/ml streptomycin (Sigma Aldrich, Steinheim, Germany). Growth conditions were 37 °C, 5 % CO2 and saturated air-humidity[60].
HEK293T-Gα16gust44 cells were seeded on poly-D-lysine (10 µg/ml) coated 96-well plates to reach a confluence of 40-60 % the next day. For transient transfection 150 ng of plasmid DNA containing the receptor of interest and 0.3 µl lipofectamine 2000 (Thermo Fisher Scientific, Darmstadt, Germany) per well were used and transfection took place according to the manual of lipofectamine 2000. […] The empty vector DNA (mock) was transfected as negative control[14],[41].
Cells were loaded using the calcium-sensitive fluorescent dye Fluo-4-AM (Abcam, Cambridge, Great Britain) in the presence of 2.5 mM probenecid (Sigma-Aldrich, Steinheim, Germany) the day after transfection[13],[41]. 1 h after loading, cells were washed with C1 buffer using a BioTek Cell Washer, incubated in the dark for half an hour and washed again. For automated agonist application and measurement of fluorescence changes, a FLIPR^TETRA device (Molecular Devices, San José, United States) was used. Viability of cells was tested by application of 100 nM Somatostatin 14 (Bachem, Bubendorf, Switzerland)[42].
Measured data were negative control corrected by subtracting the signal of the mock-transfected cells and exported to Microsoft Excel using the FLIPR software ScreenWorks 4.2. In Microsoft Excel software, standardization of maximum fluorescence intensities to the basal fluorescence and normalization to the buffer-only control was done to calculate the relative fluorescence changes (ΔF/F).
Initial screening experiments performed in duplicate wells were confirmed by at least one replication and representative traces were selected for display. All dose-response relationships were determined by three independent experiments (biological replicates) performed in duplicates (technical replicates). Threshold concentrations, defined as lowest substance concentrations leading to statistically significant elevated fluorescence changes in receptor-transfected cells compared with empty vector-transfected cells, were determined using SigmaPlot with Student’s t-test to evaluate statistical significance (p < 0.01).

[1] = Mock, sheet Tas2r105, conc. 0,01 mM
[2] = Mock, sheet Tas2r105, conc. 0,001 mM
[3] = Mock, sheet Tas2r105, conc. 0,003 mM
[4] = conc. 0,00003 mM, Mock (sheet TAS2R1)
[5] = conc. 0,0001 mM, Mock (sheet TAS2R1)
[6] = conc. 0,0003 mM, Mock (sheet TAS2R1)
[7] = conc. 0,001 mM, Mock (sheet TAS2R1)
[8] = conc. 0,003 mM, Mock (sheet TAS2R1)
[9] = Mock, sheet TAS2R14, conc. 0,01 mM
[10] = Mock, sheet TAS2R14, conc. 0,03 mM
[11] = Mock, sheet TAS2R14, conc. 0,001 mM
[12] = Mock, sheet TAS2R14, conc. 0,003 mM
[13] = conc. 0,01 mM, Mock (sheet TAS2R1)

C[C@H](CCC(=O)O)[C@H]1CC[C@H]2[C@@H]3CC[C@@H]4C[C@H](O)CC[C@]4(C)[C@H]3CC[C@]12C [Lithocholic Acid, lithocholic acid]
Δ F/F [1]: -0.0002988 | Δ F/F (Mock, sheet Tas2r105, conc. 0,00001 mM): -0.01431 | Δ F/F (Mock, sheet Tas2r105, conc. 0,00003 mM): -0.01708 | Δ F/F (Mock, sheet Tas2r105, conc. 0,0001 mM): -0.01503 | Δ F/F (Mock, sheet Tas2r105, conc. 0,0003 mM): -0.01339 | Δ F/F [2]: -0.01175 | Δ F/F [3]: -0.00295 | Δ F/F [4]: -7.475e-5 | Δ F/F [5]: -0.001646 | Δ F/F [6]: -0.002463 | Δ F/F [7]: -0.001163 | Δ F/F [8]: -0.0001447

C[C@H](CCC(=O)O)[C@H]1CC[C@H]2[C@@H]3[C@H](O)C[C@@H]4C[C@H](O)CC[C@]4(C)[C@H]3C[C@H](O)[C@]12C [Cholic Acid, cholic acid]
Δ F/F (Conc. 0,01 mM, Mock (sheet TAS2R39)): -0.01821 | Δ F/F (Conc. 0,1 mM, Mock (sheet TAS2R39)): -0.02224 | Δ F/F (Conc. 0,03 mM, Mock (sheet TAS2R39)): -0.01697 | Δ F/F (Conc. 0,3 mM, Mock (sheet TAS2R39)): -0.04388 | Δ F/F (Conc. 0,001 mM, Mock (sheet TAS2R39)): -0.01201 | Δ F/F (Conc. 1 mM, Mock (sheet TAS2R39)): -0.08707 | Δ F/F (Conc. 0,003 mM, Mock (sheet TAS2R39)): -0.01404 | Δ F/F (Mock (sheet Tas2r123), conc. 0,01 mM): -0.0003322 | Δ F/F (Mock (sheet Tas2r123), conc. 0,1 mM): -0.0005726 | Δ F/F (Mock (sheet Tas2r123), conc. 0,03 mM): -0.0005964 | Δ F/F (Mock (sheet Tas2r123), conc. 0,3 mM): 0.0008115 | Δ F/F (Mock (sheet Tas2r123), conc. 0,0003 mM): -0.001363 | Δ F/F (Mock (sheet Tas2r123), conc. 0,001 mM): -0.001187 | Δ F/F (Mock (sheet Tas2r123), conc. 0,003 mM): -0.0002243 | Δ F/F (Mock (sheet Tas2r126), conc. 0,01 mM): -0.02005 | Δ F/F (Mock (sheet Tas2r126), conc. 0,1 mM): -0.02997 | Δ F/F (Mock (sheet Tas2r126), conc. 0,03 mM): -0.01829 | Δ F/F (Mock (sheet Tas2r126), conc. 0,3 mM): -0.04711 | Δ F/F (Mock (sheet Tas2r126), conc. 0,001 mM): -0.01156 | Δ F/F (Mock (sheet Tas2r126), conc. 1 mM): -0.07412 | Δ F/F (Mock (sheet Tas2r126), conc. 0,003 mM): -0.01876 | Δ F/F (Mock (sheet Tas2r144), conc. 0,01 mM): 0.0002394 | Δ F/F (Mock (sheet Tas2r144), conc. 0,1 mM): -0.0009617 | Δ F/F (Mock (sheet Tas2r144), conc. 0,03 mM): 0.0001706 | Δ F/F (Mock (sheet Tas2r144), conc. 0,3 mM): 2.3167e-5 | Δ F/F (Mock (sheet Tas2r144), conc. 0,003 mM): -0.001282 | Δ F/F (Mock, sheet TAS2R4, conc. 0,01 mM): -0.001675 | Δ F/F (Mock, sheet TAS2R4, conc. 0,1 mM): 0.0001605 | Δ F/F (Mock, sheet TAS2R4, conc. 0,03 mM): -0.001772 | Δ F/F (Mock, sheet TAS2R4, conc. 0,3 mM): 0.0004382 | Δ F/F (Mock, sheet TAS2R4, conc. 0,0003 mM): 0.001019 | Δ F/F (Mock, sheet TAS2R4, conc. 0,001 mM): -0.0001368 | Δ F/F (Mock, sheet TAS2R4, conc. 0,003 mM): -0.001078 | Δ F/F [9]: -0.01829 | Δ F/F (Mock, sheet TAS2R14, conc. 0,1 mM): -0.02451 | Δ F/F [10]: -0.01803 | Δ F/F (Mock, sheet TAS2R14, conc. 0,3 mM): -0.04097 | Δ F/F [11]: -0.0206 | Δ F/F (Mock, sheet TAS2R14, conc. 1 mM): -0.06455 | Δ F/F [12]: -0.02081 | Δ F/F [1]: -0.01514 | Δ F/F (Mock, sheet Tas2r105, conc. 0,1 mM): -0.02586 | Δ F/F (Mock, sheet Tas2r105, conc. 0,03 mM): -0.01353 | Δ F/F (Mock, sheet Tas2r105, conc. 0,3 mM): -0.04947 | Δ F/F [2]: -0.01259 | Δ F/F (Mock, sheet Tas2r105, conc. 1 mM): -0.08731 | Δ F/F [3]: -0.01645 | Δ F/F (Mock, sheet Tas2r108, conc. 0,01 mM): -0.0241 | Δ F/F (Mock, sheet Tas2r108, conc. 0,1 mM): -0.03289 | Δ F/F (Mock, sheet Tas2r108, conc. 0,03 mM): -0.0233 | Δ F/F (Mock, sheet Tas2r108, conc. 0,3 mM): -0.05172 | Δ F/F (Mock, sheet Tas2r108, conc. 0,001 mM): -0.01866 | Δ F/F (Mock, sheet Tas2r108, conc. 1 mM): -0.07524 | Δ F/F (Mock, sheet Tas2r108, conc. 0,003 mM): -0.01483 | Δ F/F (Mock, sheet Tas2r117, conc. 0,01 mM): -0.001513 | Δ F/F (Mock, sheet Tas2r117, conc. 0,1 mM): -0.0006881 | Δ F/F (Mock, sheet Tas2r117, conc. 0,03 mM): -0.0006551 | Δ F/F (Mock, sheet Tas2r117, conc. 0,3 mM): -0.001135 | Δ F/F (Mock, sheet Tas2r117, conc. 0,0003 mM): -0.002036 | Δ F/F (Mock, sheet Tas2r117, conc. 0,001 mM): -0.0005906 | Δ F/F (Mock, sheet Tas2r117, conc. 0,003 mM): -0.001196 | Δ F/F [13]: -0.002604 | Δ F/F (conc. 0,1 mM, Mock (sheet TAS2R1)): -0.002131 | Δ F/F (conc. 0,03 mM, Mock (sheet TAS2R1)): -0.002188 | Δ F/F (conc. 0,3 mM, Mock (sheet TAS2R1)): -0.001094 | Δ F/F [7]: -0.001978 | Δ F/F [8]: -0.003067

C[C@H](CCC(=O)O)[C@H]1CC[C@H]2[C@@H]3[C@H](O)C[C@@H]4C[C@H](O)CC[C@]4(C)[C@H]3CC[C@]12C [Chenodeoxycholic Acid, chenodeoxycholic acid]
Δ F/F [9]: -0.007814 | Δ F/F [10]: -0.004111 | Δ F/F (Mock, sheet TAS2R14, conc. 0,00003 mM): -0.01383 | Δ F/F (Mock, sheet TAS2R14, conc. 0,0001 mM): -0.0179 | Δ F/F (Mock, sheet TAS2R14, conc. 0,0003 mM): -0.01292 | Δ F/F [11]: -0.005111 | Δ F/F [12]: -0.006729 | Δ F/F [13]: -0.001385 | Δ F/F [4]: -0.0006042 | Δ F/F [5]: -0.001709 | Δ F/F [6]: -0.001427 | Δ F/F [7]: -0.001629 | Δ F/F [8]: -0.001467
